Data: patent US11390622B2, “Pyrimido-isoquinolin-quinone derivative compounds, and pharmaceutically acceptable salts, isomers and tautomers thereof; pharmaceutical composition; preparation method; and use thereof in the treatment of diseases caused by bacteria and multidrug-resistant bacteria” (Universidad de Chile, priority 2015, dated 2022)
Values after ≈ are worked out from the molar mass of the structure shown. Where two headings read alike, the source gives them in different places.

What was measured:
[1] = test system: Methicillin resistant Staphylococcus aureus ATCC 43300; assay: CIM antibacterial activity screening (broth microdilution); type: cell-based
Method: (§1) These compounds were tested for their in vitro activity (Screening Antibacterial Activity CIM (μg/mL)) and the results are shown in Table II.
(§2) Bacteria used: A panel of prototype strains was used to screen for antibacterial activity in the compounds: • Methicillin-resistant Staphylococcus aureus ATCC© 43300. • Methicillin-sensitive Staphylococcus aureus ATCC© 29213. • Enterococcus faecalis ATCC© 29212. • Escherichia coli ATCC© 25922. • Pseudomonas aeruginosa ATCC© 27853.
(§3) The strains were planted from the ceparium (where they were preserved in 50% v/v glycerol and Brain Heart Infusion culture broth, at −20° C.) in Mueller-Hinton agar (Oxoid, England).
(§4) The concentrations to be tested ranged from 32 to 0.0625 μg/mL. The wells in columns 11 and 12 were used for positive growth control and sterility control respectively.
(§5) Once the plate was prepared, 100 uL of the bacterial suspension to be tested were added, previously adjusted to 0.5 Mc Farland, in each of the wells, excluding the wells in column 12. Finally, the plates were covered and incubated at 36° C. for 18 to 24 hours. Then, the plates were observed using contrast light to determine the concentration at which bacterial growth is inhibited (indicated by the disappearance of turbidity).
(§6) All trials were conducted three times, and results were considered valid if the internal controls of each plate (growth and sterility controls) were adequate. MIC antibiotic control (ciprofloxacin, gentamicin and vancomycin) was assessed and contrasted with the permitted quality control ranges given by CLSI. If the MIC detected in the trial was within the permitted ranges, the trial was accepted as valid.

[2] = test system: Eschericha coli ATCC 25922; assay: as above; type: cell-based; settings: Escherichia coli
Method: as §1, §2, §3, §4, §5, §6

[3] = test system: Enterococcus faecalis ATCC 29212; assay: as above; type: cell-based
Method: as §1, §2, §3, §4, §5, §6

[4] = test system: Pseudomona aeruginosa ATCC 27853; assay: as above; type: cell-based; settings: Pseudomonas aeruginosa
Method: as §1, §2, §3, §4, §5, §6

[5] = test system: Methicillin sensitive Staphylococcus aureus ATCC 29213; assay: as above; type: cell-based
Method: as §1, §2, §3, §4, §5, §6

[6] = ATCC43300, Methicillin resistant Staphylococcus aureus ATCC 43300, read-out: CIM
[7] = ATCC25922, Eschericha coli ATCC 25922, read-out: CIM
[8] = ATCC29212, Enterococcus faecalis ATCC 29212, read-out: CIM
[9] = ATCC27853, Pseudomona aeruginosa ATCC 27853, read-out: CIM
[10] = ATCC29213, Methicillin sensitive Staphylococcus aureus ATCC 29213, read-out: CIM
[11] = Staphylococcus aureus, ATCC43300, read-out: CIM
[12] = Enterococcus faecalis, ATCC29212, read-out: CIM
[13] = Staphylococcus aureus, ATCC29213, read-out: CIM

Row | MIC [1, 6] | MIC [2, 7] | MIC [3, 8] | MIC [4, 9] | MIC [5, 10] | melting point | Compound | MIC [1, 11] | MIC ([2]; ATCC25922, read-out: CIM) | MIC [3, 12] | MIC ([4]; ATCC27853, read-out: CIM) | MIC [5, 13]
1 | ≥ 32 µg/mL | > 32 µg/mL | > 32 µg/mL | > 32 µg/mL | ≥ 32 µg/mL | 167.6 to 167.9 °C | CCc1nc2c(c3c1C(=O)C=CC3=O)c(=O)n(C)c(=O)n2C [Molecule 1, 6-ethyl-2,4-dimethylpyrimido[4,5-c]isoquinoline-1,3,7,10(2H,4H)-tetraone] | – | – | – | – | –
2 | 32 µg/mL (≈ 75.9 µM) | ≥ 32 µg/mL | ≥ 32 µg/mL | ≥ 32 µg/mL | 32 µg/mL (≈ 75.9 µM) | 206 to 210.9 °C | CCc1nc2c(c3c1C(=O)C(Sc1ccccc1C)=CC3=O)c(=O)n(C)c(=O)n2C [Molecule 3, 6-ethyl-2,4-dimethyl-8-(o-tolylthio)pyrimido[4,5-c]isoquinoline-1,3,7,10(2H,4H)-tetraone] | – | – | – | – | –
3 | ≥ 32 µg/mL | ≥ 32 µg/mL | ≥ 32 µg/mL | ≥ 32 µg/mL | ≥ 32 µg/mL | – | CCc1nc2c(c3c1C(=O)C(Sc1ccccc1F)=CC3=O)c(=O)n(C)c(=O)n2C [Molecule 5, 6-ethyl-8-((2-fluorophenyl)thio)-2,4-dimethyl pyrimido[4,5-c]isoquinoline-1,3,7,10(2H, 4H)-tetraone] | – | – | – | – | –
4 | 4 µg/mL (≈ 9.49 µM) | ≥ 32 µg/mL | 4 µg/mL (≈ 9.49 µM) | ≥ 32 µg/mL | 4 µg/mL (≈ 9.49 µM) | 162 to 163 °C | CCc1nc2c(c3c1C(=O)C(Sc1cccc(C)c1)=CC3=O)c(=O)n(C)c(=O)n2C [Molecule 8, 6-ethyl-2,4-dimethyl-8-(m-tolylthio)pyrimido[4,5c]isoquinoline-1,3,7,10(2H,4H)-tetraone] | – | – | – | – | –
5 | 16 µg/mL (≈ 36.6 µM) | ≥ 32 µg/mL | 16 µg/mL (≈ 36.6 µM) | ≥ 32 µg/mL | 16 µg/mL (≈ 36.6 µM) | 198.9 to 201.5 °C | CCc1nc2c(c3c1C(=O)C(Sc1ccc(OC)cc1)=CC3=O)c(=O)n(C)c(=O)n2C [Molecule 14, 6-ethyl-8-(4-methoxythiophenyl)-2,4-dimethylpyrimido[4,5-c]isoquinoline-1,3,7,10(2H,4H)-tetraone] | – | – | – | – | –
6 | 4 µg/mL (≈ 8.22 µM) | ≥ 32 µg/mL | 8 µg/mL (≈ 16.4 µM) | ≥ 32 µg/mL | 8 µg/mL (≈ 16.4 µM) | 197.9 to 198.7 °C | CCc1nc2c(c3c1C(=O)C(Sc1ccc(Br)cc1)=CC3=O)c(=O)n(C)c(=O)n2C [Molecule 17, 8-(4-bromothiophenyl)-6-ethyl-2,4-dimethylpyrimido[4,5-c]isoquinoline-1,3,7,10(2H,4H)-tetraone] | – | – | – | – | –

The next lines start with the compound.

Row | Compound | MIC [1, 6] | MIC [2, 7] | MIC [3, 8] | MIC [4, 9] | MIC [5, 10] | melting point | MIC [1, 11] | MIC ([2]; ATCC25922, read-out: CIM) | MIC [3, 12] | MIC ([4]; ATCC27853, read-out: CIM) | MIC [5, 13]
7 | CCc1nc2c(c3c1C(=O)C(Sc1ccccc1)=CC3=O)c(=O)n(C)c(=O)n2C [Molecule 2, 6-ethyl-2,4-dimethyl-8-(phenythio)pyrimido[4,5-c]isoquinoline-1,3,7,10(2H,4H)-tetraone] | – | – | – | – | – | 179.4 to 180 °C | 8 µg/mL (≈ 19.6 µM) | ≥ 32 µg/mL | 8 µg/mL (≈ 19.6 µM) | ≥ 32 µg/mL | 8 µg/mL (≈ 19.6 µM)
8 | CCc1nc2c(c3c1C(=O)C(Sc1ccccc1OC)=CC3=O)c(=O)n(C)c(=O)n2C [Molecule 4, 6-ethyl-8-(2-methoxyphenylthio)-2,4-dimethyl pyrimido[4,5-c]isoquinoline-1,3,7,10(2H,4H)-tetraone] | 2 µg/mL (≈ 4.57 µM) | ≥ 32 µg/mL | 4 µg/mL (≈ 9.14 µM) | ≥ 32 µg/mL | 4 µg/mL (≈ 9.14 µM) | – | – | – | – | – | –
9 | CCc1nc2c(c3c1C(=O)C(Sc1ccccc1Cl)=CC3=O)c(=O)n(C)c(=O)n2C [Molecule 6, 8-((2-chlorophenyl)thio)-6-ethyl-2,4-dimethyl pyrimido[4,5-c]isoquinoline-1,3,7,10(2H,4H)-tetraone] | – | – | – | – | – | – | ≥ 32 µg/mL | ≥ 32 µg/mL | ≥ 32 µg/mL | ≥ 32 µg/mL | ≥ 32 µg/mL
10 | CCc1nc2c(c3c1C(=O)C(Sc1ccccc1Br)=CC3=O)c(=O)n(C)c(=O)n2C [Molecule 7, 8-((2-bromophenyl)thio)-6-ethyl-2,4-dimethylpyrimido[4,5-c]isoquinoline-1,3,7,10(2H,4H)-tetraone] | 1 µg/mL (≈ 2.06 µM) | ≥ 32 µg/mL | 2 µg/mL (≈ 4.11 µM) | ≥ 32 µg/mL | 4 µg/mL (≈ 8.22 µM) | – | – | – | – | – | –
11 | CCc1nc2c(c3c1C(=O)C(Sc1cccc(OC)c1)=CC3=O)c(=O)n(C)c(=O)n2C [Molecule 9, 6-ethyl-8-(3-methoxythiophenyl)-2,4-dimethylpyrimido[4,5-c]isoquinoline-1,3,7,10(2H,4H)-tetraone] | 4 µg/mL (≈ 9.14 µM) | ≥ 32 µg/mL | 4 µg/mL (≈ 9.14 µM) | ≥ 32 µg/mL | 8 µg/mL (≈ 18.3 µM) | 179.5 to 180.5 °C | – | – | – | – | –
12 | CCc1nc2c(c3c1C(=O)C(Sc1cccc(F)c1)=CC3=O)c(=O)n(C)c(=O)n2C [Molecule 10, 6-ethyl-8-(3-fluorothiophenyl)-2,4-dimethylpyrimido[4,5-c]isoquinoline-1,3,7,10(2H,4H)-tetraone] | 4 µg/mL (≈ 9.4 µM) | ≥ 32 µg/mL | 8 µg/mL (≈ 18.8 µM) | ≥ 32 µg/mL | 4 µg/mL (≈ 9.4 µM) | 170 to 171 °C | – | – | – | – | –
13 | CCc1nc2c(c3c1C(=O)C(Sc1cccc(Cl)c1)=CC3=O)c(=O)n(C)c(=O)n2C [Molecule 11, 8-(3-chlorothiophenyl)-6-ethyl-2,4-dimethylpyrimido[4,5-c]isoquinoline-1,3,7,10(2H,4H)-tetraone] | 2 µg/mL (≈ 4.53 µM) | ≥ 32 µg/mL | 4 µg/mL (≈ 9.05 µM) | ≥ 32 µg/mL | 32 µg/mL (≈ 72.4 µM) | 156.1 to 157.1 °C | – | – | – | – | –
14 | CCc1nc2c(c3c1C(=O)C(Sc1cccc(Br)c1)=CC3=O)c(=O)n(C)c(=O)n2C [Molecule 12, 8-(3-bromothiophenyl)-6-ethyl-2,4-dimethylpyrimido[4,5-c]isoquinoline-1,3,7,10(2, 4H)-tetraone] | 2 µg/mL (≈ 4.11 µM) | ≥ 32 µg/mL | 4 µg/mL (≈ 8.22 µM) | ≥ 32 µg/mL | 32 µg/mL (≈ 65.8 µM) | 138.3 to 139.3 °C | – | – | – | – | –
15 | CCc1nc2c(c3c1C(=O)C(Sc1ccc(C)cc1)=CC3=O)c(=O)n(C)c(=O)n2C [Molecule 13, 6-ethyl-2,4-dimethyl-8-(p-tolylthio)pyrimido[4,5-c]isoquinoline-1,3,7,10(2H,4H)-tetraone] | 4 µg/mL (≈ 9.49 µM) | ≥ 32 µg/mL | 16 µg/mL (≈ 38 µM) | ≥ 32 µg/mL | 4 µg/mL (≈ 9.49 µM) | 191 to 192.3 °C | – | – | – | – | –
16 | CCc1nc2c(c3c1C(=O)C(Sc1ccc(F)cc1)=CC3=O)c(=O)n(C)c(=O)n2C [Molecule 15, 6-ethyl-8-(4-fluorothiophenyl)-2,4-dimethylpyrimido[4,5-c]isoquinoline-1,3,7,10(2H, 4H)-tetraone] | 8 µg/mL (≈ 18.8 µM) | ≥ 32 µg/mL | 8 µg/mL (≈ 18.8 µM) | ≥ 32 µg/mL | 8 µg/mL (≈ 18.8 µM) | 194.9 to 195.4 °C | – | – | – | – | –
17 | CCc1nc2c(c3c1C(=O)C(Sc1ccc(Cl)cc1)=CC3=O)c(=O)n(C)c(=O)n2C [Molecule 16, 8-(4-chlorothiophenyl)-6-ethyl-2,4-dimethylpyrimido[4,5-c]isoquinoline-1,3,7,10(2H, 4H)-tetraone] | – | – | – | – | – | 196.5 to 198.3 °C | 4 µg/mL (≈ 9.05 µM) | ≥ 32 µg/mL | 4 µg/mL (≈ 9.05 µM) | ≥ 32 µg/mL | 4 µg/mL (≈ 9.05 µM)
